Results: ChEMBL document CHEMBL1201862, “PubChem BioAssay data set” (2004)
Active and inactive are the calls of the source.

Legend:
[1] = molecular target: T1, Beta-galactosidase (Escherichia coli, UniProt Q8VNN2); test: Dose response counterscreen for EBI2 assay utilizing the enzyme, b-galactosidase.; assay type: functional
[2] = molecular target: T2, Coagulation factor XII (Homo sapiens, UniProt P00748); assay type: functional;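 note: activated factor XIIa alpha cleaving a fluorogenic AMC peptide substrate; inhibitor potency from loss of enzyme activity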
T2 sequence (P00748 whole entry): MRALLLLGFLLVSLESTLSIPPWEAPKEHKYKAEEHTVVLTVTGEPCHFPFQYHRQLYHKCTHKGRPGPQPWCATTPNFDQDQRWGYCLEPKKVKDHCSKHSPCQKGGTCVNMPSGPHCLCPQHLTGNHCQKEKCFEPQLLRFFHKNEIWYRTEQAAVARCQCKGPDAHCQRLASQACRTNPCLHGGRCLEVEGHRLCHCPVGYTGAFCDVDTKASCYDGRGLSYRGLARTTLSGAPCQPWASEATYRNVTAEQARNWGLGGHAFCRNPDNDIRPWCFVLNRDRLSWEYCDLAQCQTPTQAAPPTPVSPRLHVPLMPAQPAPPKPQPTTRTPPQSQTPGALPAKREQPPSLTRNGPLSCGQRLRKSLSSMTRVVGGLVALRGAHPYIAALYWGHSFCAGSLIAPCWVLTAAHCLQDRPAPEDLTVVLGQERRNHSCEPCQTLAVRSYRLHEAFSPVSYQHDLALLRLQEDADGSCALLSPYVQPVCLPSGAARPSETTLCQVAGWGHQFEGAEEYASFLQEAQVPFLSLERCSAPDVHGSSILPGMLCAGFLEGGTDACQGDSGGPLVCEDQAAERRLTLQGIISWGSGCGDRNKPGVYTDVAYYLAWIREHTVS

[3] = molecular target: Melanocortin receptor 4 (Homo sapiens, UniProt P32245); test: MC4R antagonist potency on cAMP, dose response, cell-based, TR-FRET, biased antagonists (AID 602298); assay type: functional;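 note: antagonist potency against agonist-stimulated cAMP production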
[4] = nonselective inhibitors of cellular cAMP signaling, dose response, counter-screen for MC4R biased antagonist project, cell-based, TR-FRET cAMP detection (AID 602305); assay type: functional;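 note: U2OS cells stimulated with forskolin near its EC80 as the cAMP inducer; potency is for inhibition of forskolin-stimulated cAMP signaling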
[5] = molecular target: T3, Polyadenylate-binding protein 1 (Homo sapiens, UniProt P11940); test: PABP1 MLLE–PAM2 binding inhibitor potency, dose response, biochemical, fluorescence polarization, FITC-PAM2 peptide (AID 602259); assay type: functional; conditions: read-out: IC50_Mean
[6] = molecular target: T4, Replicative DNA helicase DnaB (Mycobacterium tuberculosis, UniProt P9WMR3); test: DnaB intein splicing inhibitors, dose response, biochemical, cell-free fluorescence (AID 449749); assay type: functional
T4 sequence (P9WMR3 whole entry): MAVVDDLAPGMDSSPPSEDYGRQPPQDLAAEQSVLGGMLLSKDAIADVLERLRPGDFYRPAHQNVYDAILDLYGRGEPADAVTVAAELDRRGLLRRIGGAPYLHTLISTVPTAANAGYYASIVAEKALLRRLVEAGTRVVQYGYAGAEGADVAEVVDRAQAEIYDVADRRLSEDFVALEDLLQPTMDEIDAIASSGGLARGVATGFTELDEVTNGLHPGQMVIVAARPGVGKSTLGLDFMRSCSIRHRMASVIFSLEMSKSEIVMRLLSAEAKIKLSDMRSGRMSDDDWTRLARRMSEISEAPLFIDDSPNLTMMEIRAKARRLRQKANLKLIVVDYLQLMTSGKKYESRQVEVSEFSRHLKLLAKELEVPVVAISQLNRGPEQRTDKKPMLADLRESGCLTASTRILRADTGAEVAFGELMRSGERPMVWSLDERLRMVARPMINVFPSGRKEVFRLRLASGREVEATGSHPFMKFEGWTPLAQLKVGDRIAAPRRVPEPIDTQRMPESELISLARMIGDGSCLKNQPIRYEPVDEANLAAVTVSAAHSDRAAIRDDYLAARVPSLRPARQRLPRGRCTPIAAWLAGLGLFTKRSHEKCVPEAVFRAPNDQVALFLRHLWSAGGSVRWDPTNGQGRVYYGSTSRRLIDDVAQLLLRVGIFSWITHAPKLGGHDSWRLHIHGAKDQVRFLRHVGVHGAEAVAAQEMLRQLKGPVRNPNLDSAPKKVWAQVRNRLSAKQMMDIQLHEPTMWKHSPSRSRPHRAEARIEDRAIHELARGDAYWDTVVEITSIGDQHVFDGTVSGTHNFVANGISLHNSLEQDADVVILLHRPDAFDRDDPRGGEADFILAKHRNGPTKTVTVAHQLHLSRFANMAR

[7] = molecular target: T5, Protein RecA (Mycobacterium tuberculosis, UniProt P9WHJ3); test: Fluorescence Cell-Free Homogeneous Dose Retest to Identify Inhibitors of RecA-Intein Splicing Activity. [Related pubchem assays (depositor defined):AID2097, AID2223, AID489010, AID492950]; assay type: functional
T5 sequence (P9WHJ3 whole entry): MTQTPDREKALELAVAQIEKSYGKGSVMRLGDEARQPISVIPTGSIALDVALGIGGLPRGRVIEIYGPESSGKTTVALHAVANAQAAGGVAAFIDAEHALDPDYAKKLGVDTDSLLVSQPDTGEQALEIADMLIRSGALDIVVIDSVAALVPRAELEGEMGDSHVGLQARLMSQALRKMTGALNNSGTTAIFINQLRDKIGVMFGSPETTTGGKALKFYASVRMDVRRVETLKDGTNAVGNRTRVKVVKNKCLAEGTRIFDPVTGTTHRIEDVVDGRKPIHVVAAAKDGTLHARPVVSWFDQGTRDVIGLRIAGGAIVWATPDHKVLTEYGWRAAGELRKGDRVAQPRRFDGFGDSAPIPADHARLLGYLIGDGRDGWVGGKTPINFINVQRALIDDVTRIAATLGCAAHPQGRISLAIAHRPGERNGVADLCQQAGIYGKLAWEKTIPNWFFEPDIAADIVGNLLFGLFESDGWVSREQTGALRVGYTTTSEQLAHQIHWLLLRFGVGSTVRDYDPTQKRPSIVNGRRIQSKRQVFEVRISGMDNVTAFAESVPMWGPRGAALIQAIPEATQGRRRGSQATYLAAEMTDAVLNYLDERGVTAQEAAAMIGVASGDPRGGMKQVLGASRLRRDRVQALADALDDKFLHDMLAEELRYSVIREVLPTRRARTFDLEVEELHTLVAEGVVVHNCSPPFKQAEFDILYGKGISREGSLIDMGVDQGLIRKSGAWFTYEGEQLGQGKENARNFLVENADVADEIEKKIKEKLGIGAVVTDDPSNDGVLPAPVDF

[8] = molecular target: T3, Polyadenylate-binding protein 1; test: PABP1 MLLE–PAM2 interaction inhibitors, dose response, miRNA deadenylation inhibitor project, biochemical, fluorescence polarization, Cy5-PAM2 peptide, secondary (AID 602260); assay type: functional; conditions: read-out: IC50_Mean
[9] = molecular target: T6, Ubiquitin-conjugating enzyme E2 N (Homo sapiens, UniProt P61088); assay type: functional;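 note: Dose-response confirmation in a TR-FRET assay detecting UBC13-driven polyubiquitin chain formation, inhibition measured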
T6 sequence (P61088 whole entry): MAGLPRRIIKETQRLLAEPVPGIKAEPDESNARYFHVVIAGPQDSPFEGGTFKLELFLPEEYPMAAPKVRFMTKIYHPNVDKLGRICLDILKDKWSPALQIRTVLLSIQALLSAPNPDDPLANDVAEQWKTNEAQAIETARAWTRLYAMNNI

[10] = molecular target: T7, Type-1 angiotensin II receptor (Homo sapiens, UniProt P30556); test: AT1 receptor antagonists, dose response, selectivity assay for APJ receptor antagonist project, cell-based, uHTS hits (AID 463214); assay type: functional;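 note: antagonist potency against angiotensin II stimulated AT1 response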
T7 sequence (P30556 whole entry): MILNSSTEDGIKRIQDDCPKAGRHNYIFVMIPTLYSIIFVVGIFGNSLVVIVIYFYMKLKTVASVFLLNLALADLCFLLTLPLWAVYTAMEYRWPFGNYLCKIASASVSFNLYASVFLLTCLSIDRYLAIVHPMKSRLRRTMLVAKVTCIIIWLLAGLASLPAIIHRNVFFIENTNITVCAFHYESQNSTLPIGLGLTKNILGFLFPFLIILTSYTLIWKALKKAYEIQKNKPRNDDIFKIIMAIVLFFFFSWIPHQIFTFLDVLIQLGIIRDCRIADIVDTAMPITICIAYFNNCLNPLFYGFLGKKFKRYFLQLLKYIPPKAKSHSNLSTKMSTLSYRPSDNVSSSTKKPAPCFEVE

[11] = molecular target: T1, Beta-galactosidase; test: PubChem AID 485352; assay type: functional
[12] = cytotoxicity in HEK-293T cells, dose response, cytotoxicity control for BCR NF-kB inhibitor project, luminescence, B-cell screen hits (AID 489021); assay type: functional, cell-based;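 note: HEK-293T cells carrying an NF-kB luciferase reporter; cells exposed to compound for about 14 hours before viability readout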
[13] = system: Streptococcus; test: Group A Streptococcus viability loss, dose response, counter-screen for streptokinase expression inhibitor project, luminescence, BacTiterGlo (AID 1915); assay type: functional, organism-based;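 note: potency for reduction of bacterial viability or growth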
[14] = molecular target: T8, Streptokinase A (Streptococcus pyogenes serotype M1, UniProt P10520); test: S. pyogenes streptokinase expression inhibitors, potency, dose response, plasminogen activation absorbance, OD405 (AID 1914); assay type: functional, Streptococcus pyogenes M1 GAS;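 note: secreted streptokinase activity via plasminogen activation per viability signal from cell pellet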
T8 sequence (P10520 whole entry): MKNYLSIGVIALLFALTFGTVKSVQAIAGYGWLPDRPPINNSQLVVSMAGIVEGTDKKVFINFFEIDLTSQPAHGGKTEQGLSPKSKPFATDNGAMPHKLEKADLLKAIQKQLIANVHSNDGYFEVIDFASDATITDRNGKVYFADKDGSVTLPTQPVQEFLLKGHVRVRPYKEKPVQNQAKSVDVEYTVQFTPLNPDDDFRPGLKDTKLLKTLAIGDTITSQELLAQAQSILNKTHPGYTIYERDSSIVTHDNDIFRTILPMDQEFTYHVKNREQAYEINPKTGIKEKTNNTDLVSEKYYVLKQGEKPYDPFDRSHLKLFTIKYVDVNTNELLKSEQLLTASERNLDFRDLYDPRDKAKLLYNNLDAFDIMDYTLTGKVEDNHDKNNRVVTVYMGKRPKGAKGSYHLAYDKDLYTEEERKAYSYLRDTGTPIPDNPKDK

[15] = system: Streptococcus sp. 'group A'; test: growth inhibition of control SK(-) GAS strain, dose response, counter-screen for streptokinase expression inhibitor project, luminescence, kanamycin, BacTiterGlo, confirmation (AID 1900); assay type: functional, organism-based

T1 sequence (Q8VNN2 whole entry): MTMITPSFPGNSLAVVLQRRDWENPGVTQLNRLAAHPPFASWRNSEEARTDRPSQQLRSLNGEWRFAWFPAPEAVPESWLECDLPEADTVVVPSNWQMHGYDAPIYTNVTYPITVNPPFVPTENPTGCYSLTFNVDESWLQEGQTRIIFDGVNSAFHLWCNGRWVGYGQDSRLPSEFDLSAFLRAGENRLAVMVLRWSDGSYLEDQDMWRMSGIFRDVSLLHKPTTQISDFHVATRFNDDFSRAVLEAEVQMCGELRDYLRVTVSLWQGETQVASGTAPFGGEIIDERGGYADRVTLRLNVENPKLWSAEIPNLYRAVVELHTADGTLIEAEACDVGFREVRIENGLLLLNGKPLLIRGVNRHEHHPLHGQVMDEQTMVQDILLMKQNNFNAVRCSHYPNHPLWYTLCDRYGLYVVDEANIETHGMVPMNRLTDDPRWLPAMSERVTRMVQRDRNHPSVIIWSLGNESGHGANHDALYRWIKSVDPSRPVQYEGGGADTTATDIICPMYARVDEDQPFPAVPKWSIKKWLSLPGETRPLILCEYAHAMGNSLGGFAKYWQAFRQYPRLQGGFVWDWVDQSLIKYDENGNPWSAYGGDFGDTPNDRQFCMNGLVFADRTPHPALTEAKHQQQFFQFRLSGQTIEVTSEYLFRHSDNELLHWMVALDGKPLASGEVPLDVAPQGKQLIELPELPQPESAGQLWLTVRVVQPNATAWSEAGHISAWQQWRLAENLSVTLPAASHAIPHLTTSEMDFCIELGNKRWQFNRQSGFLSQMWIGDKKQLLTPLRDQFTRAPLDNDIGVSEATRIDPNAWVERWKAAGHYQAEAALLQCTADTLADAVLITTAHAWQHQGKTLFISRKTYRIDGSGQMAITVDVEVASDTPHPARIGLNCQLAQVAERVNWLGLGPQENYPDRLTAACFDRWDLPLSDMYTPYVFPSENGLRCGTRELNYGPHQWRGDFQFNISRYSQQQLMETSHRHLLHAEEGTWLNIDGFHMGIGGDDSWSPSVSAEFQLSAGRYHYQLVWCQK
T3 sequence (P11940 whole entry): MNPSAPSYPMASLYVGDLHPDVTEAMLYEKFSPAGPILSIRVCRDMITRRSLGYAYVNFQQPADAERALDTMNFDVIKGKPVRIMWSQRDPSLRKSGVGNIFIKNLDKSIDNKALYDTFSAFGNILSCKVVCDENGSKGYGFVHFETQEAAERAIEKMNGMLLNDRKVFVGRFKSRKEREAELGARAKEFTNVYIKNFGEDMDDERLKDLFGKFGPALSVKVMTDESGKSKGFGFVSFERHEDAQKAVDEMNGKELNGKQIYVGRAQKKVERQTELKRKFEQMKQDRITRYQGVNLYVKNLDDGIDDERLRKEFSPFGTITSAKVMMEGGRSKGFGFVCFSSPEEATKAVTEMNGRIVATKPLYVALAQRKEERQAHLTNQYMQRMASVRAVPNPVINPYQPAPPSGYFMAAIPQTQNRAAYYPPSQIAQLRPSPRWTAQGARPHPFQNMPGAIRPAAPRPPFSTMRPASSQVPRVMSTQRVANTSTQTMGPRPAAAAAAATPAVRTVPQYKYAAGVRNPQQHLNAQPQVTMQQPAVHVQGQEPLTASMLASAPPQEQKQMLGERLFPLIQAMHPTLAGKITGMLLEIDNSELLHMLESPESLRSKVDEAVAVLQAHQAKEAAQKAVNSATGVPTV
Chain of Melanocortin receptor 4 (P32245 whole entry): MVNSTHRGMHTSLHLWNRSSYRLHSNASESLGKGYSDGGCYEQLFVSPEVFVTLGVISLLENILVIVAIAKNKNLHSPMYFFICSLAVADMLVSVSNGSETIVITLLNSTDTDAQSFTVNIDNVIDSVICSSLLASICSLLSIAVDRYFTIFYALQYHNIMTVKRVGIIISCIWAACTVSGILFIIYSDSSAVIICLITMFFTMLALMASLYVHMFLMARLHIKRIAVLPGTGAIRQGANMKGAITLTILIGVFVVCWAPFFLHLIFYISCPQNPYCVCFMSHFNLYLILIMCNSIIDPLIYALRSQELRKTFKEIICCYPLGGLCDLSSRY

## COc1ccc(-n2cc(-c3ccc(Br)cc3)nc2S)cc1
[1]
  IC50: > 80 µM (inactive)

## CCN1C(=O)/C(=C\c2ccco2)C(C(=O)OC)=C1C
[2]
  IC50: > 50 µM (inactive)

## COc1ccccc1C1(CCNC(C)c2cccs2)CCOC(C(C)C)C1 (configuration not stated)
[3]
  IC50: 10.1 µM (inactive)
[4]
  IC50: > 64.5 µM (inactive)

## CCN=C(S)N=Nc1c(O)[nH]c2ccc([N+](=O)[O-])cc12
[5]
  IC50: > 66 µM (inactive)
[6]
  AC50: > 380 µM (inactive)
[7]
  EC50: 56.6 µM (active)
[8]
  IC50: > 66 µM (inactive)
[9]
  IC50: > 20 µM (inactive)

## O=[N+]([O-])c1cccc(/C=N/NS(=O)(=O)c2ccccc2)c1
[10]
  IC50: 24.3 µM (not active)
[11]
  EC50: > 40 µM (inactive)

## O=C(/C=C/c1ccc([N+](=O)[O-])cc1)N1CCN(S(=O)(=O)c2ccccc2)CC1
[1]
  IC50: > 80 µM (inactive)

## COc1ccc(-c2noc(N3CCC(C(=O)Nc4ccc(OC)c(OC)c4)CC3)n2)cc1
[12]
  IC50: > 80 µM (inactive)

## O=S(=O)(c1ccc(F)cc1)N1CCN(c2nc(-c3cccnc3)nc3ccccc23)CC1
[3]
  IC50: > 64.6 µM (inactive)
[4]
  IC50: > 64.6 µM (inactive)

## Cc1ccc2c(c1)nnn2C1CCN(CC(=O)NCCc2nc3ccccc3[nH]2)CC1
[10]
  IC50: > 40 µM (not active)
[11]
  EC50: > 40 µM (inactive)

## Cc1cc(OCC(=O)N(C)Cc2ccccc2)ccc1Br
[1]
  IC50: > 80 µM (inactive)

## Cc1ccc(Cn2cc(/C=N/NC(=O)Cc3nnc(NC(=O)c4ccc(C)cc4)s3)c3ccccc32)cc1
[13]
  EC50: 36.9 µM (active)
[14]
  EC50: > 150 µM (not active)
[2]
  IC50: > 50 µM (inactive)
[15]
  EC50: 2.5 µM (active)
